Test results reported in paper PMC3768135 (Bioorganic & medicinal chemistry, 2013).

How the values were obtained:
[1] = target: SaFtsZ (Staphylococcus aureus, UniProt P0A031); experiment: GTPase assay, malachite green phosphate detection; type: biochemical
[2] = target: EcFtsZ (Escherichia coli, UniProt P0A9A6); experiment: GTPase assay, malachite green phosphate detection; type: biochemical
[3] = target: T1, BsFtsZ (Bacillus subtilis, UniProt P17865); experiment: fluorescence anisotropy titration with FtsZ; type: binding
T1 sequence (P17865 1-382): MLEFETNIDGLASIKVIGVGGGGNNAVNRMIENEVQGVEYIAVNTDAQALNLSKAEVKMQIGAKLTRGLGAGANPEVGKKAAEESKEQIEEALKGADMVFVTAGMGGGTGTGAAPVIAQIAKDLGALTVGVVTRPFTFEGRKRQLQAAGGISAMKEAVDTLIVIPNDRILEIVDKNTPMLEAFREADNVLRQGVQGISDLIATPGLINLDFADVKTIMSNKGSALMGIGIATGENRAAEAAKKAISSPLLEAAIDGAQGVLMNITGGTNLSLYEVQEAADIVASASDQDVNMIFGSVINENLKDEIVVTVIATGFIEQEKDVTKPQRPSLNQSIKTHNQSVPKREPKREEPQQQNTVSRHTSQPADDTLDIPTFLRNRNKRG

SaFtsZ, sequence (P0A031 whole entry): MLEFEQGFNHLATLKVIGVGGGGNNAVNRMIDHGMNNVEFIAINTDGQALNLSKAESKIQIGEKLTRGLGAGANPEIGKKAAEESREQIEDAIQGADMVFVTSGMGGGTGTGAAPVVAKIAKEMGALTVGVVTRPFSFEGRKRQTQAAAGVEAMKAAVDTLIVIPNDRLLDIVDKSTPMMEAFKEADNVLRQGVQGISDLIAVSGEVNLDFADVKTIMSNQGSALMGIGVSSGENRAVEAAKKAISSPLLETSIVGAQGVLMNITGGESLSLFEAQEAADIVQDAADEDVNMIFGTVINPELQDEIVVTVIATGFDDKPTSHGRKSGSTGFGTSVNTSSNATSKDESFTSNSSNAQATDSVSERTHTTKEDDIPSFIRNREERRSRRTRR
EcFtsZ, sequence (P0A9A6 whole entry): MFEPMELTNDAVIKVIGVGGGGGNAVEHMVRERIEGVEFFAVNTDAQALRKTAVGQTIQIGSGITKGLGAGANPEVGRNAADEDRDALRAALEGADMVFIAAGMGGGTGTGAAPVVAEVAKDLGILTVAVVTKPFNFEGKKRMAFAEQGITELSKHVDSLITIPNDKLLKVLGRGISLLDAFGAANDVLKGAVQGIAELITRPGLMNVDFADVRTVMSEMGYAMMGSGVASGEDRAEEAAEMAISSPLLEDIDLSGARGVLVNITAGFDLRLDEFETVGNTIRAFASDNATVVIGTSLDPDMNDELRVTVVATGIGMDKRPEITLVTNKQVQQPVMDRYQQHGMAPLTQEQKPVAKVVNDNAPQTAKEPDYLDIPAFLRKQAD

Substance | IC50 [1] [µM] | IC50 [2] [µM] | Ka [3]
hemi-chrysophaentin [compound 2] | 38 ± 9 | 37 ± 7 | 
mant-GTP |  |  | (9.9 ± 0.5) × 10^5 (Ka) M^−1
